Data on four compounds can be found in ChEMBL document CHEMBL1155818, “Uredinorubellins and caeruleoramularin, photodynamically active anthraquinone derivatives produced by two species of the genus ramularia” (J Nat Prod, 2008).

Structures are written as SMILES. Activity calls are given as the source filed them. The calls are words filed in the database; no cut-off is given here.

Assay [1] is filed under the species Oryctolagus cuniculus. The experiment in a line: Reduction of cell viability in rabbit HIG82 cells at 2 uM followed by illumination at 2.5 W/cm'2 cold light for 40 seconds by XTT assay. The assay is classed as functional, cell-based. A general note: Tetrazolium dyes change colour on reduction, which living cells bring about.
For assay [2], the system named is J774.A1. The experiment in a line: Reduction of cell viability in mouse J774A.1 cells at 10 uM followed by illumination at 2.5 W/cm'2 cold light for 40 seconds by XTT assay. The assay is classed as functional, cell-based.
The species named for assay [3] is Oryctolagus cuniculus. The experiment in a line: Reduction of cell viability in rabbit HIG82 cells at 10 uM followed by illumination at 2.5 W/cm'2 cold light for 40 seconds by XTT assay. The assay is classed as functional, cell-based.
For the next assay, the system named is Pseudomonas aeruginosa. Nature of the assay: Antimicrobial activity against […] Pseudomonas aeruginosa DSM1117 on exposure to 2.5 W/cm'2 cold light for 40 secs at 1 to 100 uM. The assay is classed as functional, organism-based.
Assay [4] relates to J774.A1. Nature of the assay: Reduction of cell viability in mouse J774A.1 cells at 2 uM followed by illumination at 2.5 W/cm'2 cold light for 40 seconds by XTT assay. The assay is classed as functional, cell-based.
The subject of assay [5] is HT-29. The experiment in a line: Reduction of cell viability in human HT29 cells at 2 uM followed by illumination at 2.5 W/cm'2 cold light for 40 seconds by XTT assay. The assay is classed as functional, cell-based.
Assay [6] relates to HT-29. The experiment in a line: Reduction of cell viability in human HT29 cells at 10 uM followed by illumination at 2.5 W/cm'2 cold light for 40 seconds by XTT assay. The assay is classed as functional, cell-based.

For the compound `Cc1cc(O)c2c(c1)[C@H](O)[C@]13Cc4cc(O)c5c(c4[C@H]1C=C[C@@H](O)[C@@]3(O)C2=O)C(=O)c1cccc(O)c1C5=O`, the result in the assay listed under Oryctolagus cuniculus [1], with J774.A1 [2], in the assay listed under Oryctolagus cuniculus [3] and in the assay on J774.A1 [4] was Active. Further, the outcome in the assay on Pseudomonas aeruginosa was inactive.

Regarding `Cc1cc(O)c2c(c1)[C@H](O)[C@]13Cc4cc(O)c5c(c4[C@H]1C=C[C@@H](O)[C@H]3OC2=O)C=C1C(=O)C=CC(O)=C1C5=O`, the result in the assay filed under Oryctolagus cuniculus [1], in the assay on Pseudomonas aeruginosa and in the assay on J774.A1 [4] was inactive.

With `Cc1cc(O)c2c(c1)[C@H](O)[C@]13Cc4cc(O)c5c(c4[C@H]1C=C[C@@H](O)[C@@]3(O)C2=O)C(=O)c1c(O)ccc(O)c1C5=O`, the result in the assay on HT-29 [5] and in the assay on HT-29 [6] was Active. The outcome with Pseudomonas aeruginosa was inactive.

Take `Cc1cc(O)c2c(c1)C(=O)c1cccc(O)c1C2=O`: the outcome in the assay filed under Oryctolagus cuniculus [1], in the assay with Pseudomonas aeruginosa and with J774.A1 [4] was inactive.
